Test: xn = mol fraction of the nth substance listed

CN(C)P(=O)(N(C)C)N(C)C + CO
303.15 K, 101.3 kPa
Conditions | viscosity [mPa·s]
x1 = 0.0993 | 0.829
x1 = 0.2036 | 1.145
x1 = 0.2984 | 1.401
x1 = 0.3941 | 1.63
x1 = 0.4882 | 1.846
x1 = 0.5898 | 2.07
x1 = 0.6978 | 2.308
x1 = 0.778 | 2.476
x1 = 0.8966 | 2.722

CN(C)P(=O)(N(C)C)N(C)C + CCCCO
303.15 K, 101.3 kPa
Conditions | viscosity [mPa·s]
x1 = 0.0872 | 2.283
x1 = 0.1988 | 2.312
x1 = 0.2977 | 2.351
x1 = 0.3888 | 2.404
x1 = 0.4941 | 2.487
x1 = 0.5894 | 2.567
x1 = 0.6891 | 2.655
x1 = 0.7954 | 2.745
x1 = 0.8991 | 2.834

O=N[O-].[Na+] + O
viscosity [mPa·s]
Conditions | x1 = 0.0182 | x1 = 0.0368 | x1 = 0.0558 | x1 = 0.0753 | x1 = 0.0989 | x2 = 0.85 | x2 = 0.87 | x2 = 0.89 | x2 = 0.92 | x2 = 0.94
293.15 K, 101.33 kPa | – | – | – | – | – | 2.834 | 2.248 | 1.903 | 1.494 | 1.374
298.15 K, 101 kPa | 0.97 | 1.09 | 1.24 | 1.43 | 1.73 | – | – | – | – | –
313.15 K, 101 kPa | 0.72 | 0.82 | 0.93 | 1.05 | 1.26 | – | – | – | – | –

O=S(Cl)Cl + c1ccccc1
298.15 K, 101 kPa
Conditions | viscosity [mPa·s]
x1 = 0.181 | 0.5962
x1 = 0.366 | 0.5999
x1 = 0.481 | 0.602
x1 = 0.686 | 0.6068
x1 = 0.877 | 0.6165

CCCCCCCCC + CCCCCCCCCC
298.15 K, 101.33 kPa
Conditions | viscosity [mPa·s]
x1 = 0.1051 | 0.8387
x1 = 0.2082 | 0.8061
x1 = 0.3045 | 0.7835
x1 = 0.4048 | 0.7761
x1 = 0.5057 | 0.7535
x1 = 0.6085 | 0.7344
x1 = 0.7065 | 0.7185
x1 = 0.806 | 0.6913
x1 = 0.897 | 0.6734

C1COCO1 + CCC(C)O
viscosity [mPa·s]
Conditions | 298.15 K | 303.15 K | 313.15 K
101 kPa, x1 = 0.1001 | – | 1.516 | –
101 kPa, x1 = 0.2001 | – | 1.181 | –
101 kPa, x1 = 0.3001 | – | 0.9354 | –
101 kPa, x1 = 0.4001 | – | 0.812 | –
101 kPa, x1 = 0.5001 | – | 0.7072 | –
101 kPa, x1 = 0.6001 | – | 0.6589 | –
101 kPa, x1 = 0.7001 | – | 0.612 | –
101 kPa, x1 = 0.8001 | – | 0.5894 | –
101 kPa, x1 = 0.9001 | – | 0.5588 | –
101.33 kPa, x1 = 0.0987 | 1.997 | – | 1.29
101.33 kPa, x1 = 0.1966 | 1.454 | – | 1.016
101.33 kPa, x1 = 0.2957 | 1.149 | – | 0.8449
101.33 kPa, x1 = 0.3994 | 0.9497 | – | 0.7262
101.33 kPa, x1 = 0.5008 | 0.8242 | – | 0.6486
101.33 kPa, x1 = 0.6023 | 0.7412 | – | 0.593
101.33 kPa, x1 = 0.699 | 0.6698 | – | 0.55
101.33 kPa, x1 = 0.8014 | 0.6265 | – | 0.5218
101.33 kPa, x1 = 0.9023 | 0.5997 | – | 0.5052

O=S(Cl)Cl + [Cl-].[Cl-].[Cl-].[Cl-].[Sn+4]
298.15 K, 101 kPa
Conditions | viscosity [mPa·s]
x1 = 0.402 | 0.7259
x1 = 0.517 | 0.7057
x1 = 0.803 | 0.6524

C1COCO1 + CCCCO
viscosity [mPa·s], 101 kPa
Conditions | 298.15 K | 303.15 K | 313.15 K
x1 = 0.1001 | – | 1.74 | –
x1 = 0.1022 | 1.884 | – | 1.354
x1 = 0.1981 | 1.493 | – | 1.109
x1 = 0.2001 | – | 1.373 | –
x1 = 0.3001 | – | 1.113 | –
x1 = 0.3055 | 1.201 | – | 0.9166
x1 = 0.4001 | – | 0.9587 | –
x1 = 0.4054 | 1.014 | – | 0.7915
x1 = 0.5001 | – | 0.8419 | –
x1 = 0.5008 | 0.8912 | – | 0.7023
x1 = 0.6001 | – | 0.7305 | –
x1 = 0.6035 | 0.7757 | – | 0.6292
x1 = 0.7001 | – | 0.6582 | –
x1 = 0.7024 | 0.6998 | – | 0.5763
x1 = 0.8001 | – | 0.6192 | –
x1 = 0.8009 | 0.6441 | – | 0.5372
x1 = 0.9001 | – | 0.5873 | –
x1 = 0.9002 | 0.6073 | – | 0.5116

C1COCO1 + COCCO
298.15 K, 101 kPa
Conditions | viscosity [mPa·s]
x1 = 0.1024 | 1.345
x1 = 0.2043 | 1.171
x1 = 0.3057 | 1.032
x1 = 0.4065 | 0.9197
x1 = 0.5067 | 0.8293
x1 = 0.6064 | 0.7564
x1 = 0.7056 | 0.6979
x1 = 0.8043 | 0.6517
x1 = 0.9024 | 0.6155

CC(=O)c1ccccc1 + ClCCCl
298.15 K, 101 kPa
Conditions | viscosity [mPa·s]
x2 = 0.1118 | 1.531
x2 = 0.3581 | 1.283
x2 = 0.6942 | 0.993

C1COCO1 + C1CCOC1
298.15 K, 101 kPa
Conditions | viscosity [mPa·s]
x2 = 0.1025 | 0.5975
x2 = 0.2043 | 0.5993
x2 = 0.3057 | 0.5923
x2 = 0.4065 | 0.5804
x2 = 0.5067 | 0.5634
x2 = 0.6065 | 0.5438
x2 = 0.7056 | 0.5224
x2 = 0.8043 | 0.501
x2 = 0.9024 | 0.4802

CC(C)C[C@H](NC(=O)CN)C(=O)O + O
viscosity [mPa·s], 100 kPa
Conditions | x1 = 0.000362 | x1 = 0.000727 | x1 = 0.00109 | x1 = 0.00145 | x1 = 0.00179 | x1 = 0.002245 | x1 = 0.002699
293.15 K | 1.015 | 1.029 | 1.042 | 1.054 | 1.067 | 1.083 | 1.1
298.15 K | 0.9019 | 0.9133 | 0.9246 | 0.9358 | 0.9464 | 0.9607 | 0.9749
303.15 K | 0.8072 | 0.817 | 0.8268 | 0.8363 | 0.8455 | 0.8577 | 0.8698
308.15 K | 0.7277 | 0.7362 | 0.7447 | 0.753 | 0.761 | 0.7717 | 0.7823
313.15 K | 0.6605 | 0.668 | 0.6755 | 0.6828 | 0.6898 | 0.6992 | 0.7085

CCCCCC(=O)[O-].[Na+] + CCCCCCCCCC(=O)O
100 kPa, x1 = 0.3
Conditions | viscosity [mPa·s]
293.15 K | 285.4
298.15 K | 213.6
303.15 K | 162.3
308.15 K | 125.7
313.15 K | 98.9
318.15 K | 79
323.15 K | 63.9

CN(C)P(=O)(N(C)C)N(C)C + CC(C)(C)O
303.15 K, 101.3 kPa
Conditions | viscosity [mPa·s]
x1 = 0.0784 | 3.704
x1 = 0.103 | 3.722
x1 = 0.1988 | 3.624
x1 = 0.2201 | 3.547
x1 = 0.3076 | 3.4
x1 = 0.4051 | 3.263
x1 = 0.4476 | 3.23
x1 = 0.5093 | 3.185
x1 = 0.6062 | 3.118
x1 = 0.7077 | 3.068
x1 = 0.8008 | 3.02
x1 = 0.9029 | 2.973

C1COCO1 + CC#N
viscosity [mPa·s], 101 kPa
Conditions | x2 = 0.167 | x2 = 0.3109 | x2 = 0.4361 | x2 = 0.5461 | x2 = 0.6435 | x2 = 0.7302 | x2 = 0.8081 | x2 = 0.8783 | x2 = 0.942
298.15 K | 0.5233 | 0.4737 | 0.436 | 0.4046 | 0.3783 | 0.3591 | 0.3444 | 0.338 | 0.3366
308.15 K | 0.4618 | 0.4235 | 0.3913 | 0.3646 | 0.3419 | 0.3251 | 0.3134 | 0.3077 | 0.307
318.15 K | 0.4132 | 0.3791 | 0.3502 | 0.3263 | 0.3065 | 0.291 | 0.2817 | 0.278 | 0.2797

O=S(Cl)Cl + C1CCCCC1
298.15 K, 101 kPa
Conditions | viscosity [mPa·s]
x1 = 0.272 | 0.7201
x1 = 0.466 | 0.6634
x1 = 0.806 | 0.6183
x1 = 0.937 | 0.6156

CC(=O)c1ccccc1 + CC(=O)O
298.15 K, 101 kPa
Conditions | viscosity [mPa·s]
x2 = 0.0998 | 1.741
x2 = 0.2107 | 1.754
x2 = 0.2935 | 1.742
x2 = 0.4253 | 1.703
x2 = 0.4885 | 1.668
x2 = 0.6003 | 1.598
x2 = 0.6998 | 1.524
x2 = 0.8002 | 1.42
x2 = 0.9013 | 1.293

— the CheMixHub viscosity set
